Data on 15 compounds can be found in ChEMBL document CHEMBL6153055, “Design, Synthesis, and Pharmacological Evaluation of Nonsteroidal Tricyclic Ligands as Modulators of GABAA Receptors” (J Med Chem, 2025).

What is called IC50 is the midpoint of a concentration-inhibition curve. In general, Emax refers to the size of the effect at its maximum, as opposed to the concentration needed.

Active and inactive are the calls of the source. No cut-off for these calls is given here.

The target of data set [1] is T1, Gamma-aminobutyric acid receptor subunit alpha-1/beta-3/gamma-2 (Mus musculus, UniProt P22723+P62812+P63080). The experiment in a line: Negative allosteric modulation of recombinant mouse alpha1beta3gamma2 GABAA receptor expressed in GFP tagged HEK293 cells at peak current by whole-cell voltage clamp electrophysiological analysis. It counts as cell-based.
Data set [2] has as its target T1, Gamma-aminobutyric acid receptor subunit alpha-1/beta-3/gamma-2. Put plainly: Negative allosteric modulation of recombinant mouse alpha1beta3gamma2 GABAA receptor expressed in GFP tagged HEK293 cells at steady state current by whole-cell voltage clamp electrophysiological analysis. The class given is cell-based.
Data set [3] can be described thus: Solubility of the compound at 100 uM. The class given is physicochemical.
The target of data set [4] is T2, Gamma-aminobutyric acid receptor subunit alpha-1/beta-3/gamma-2 (Mus musculus) (UniProt P22723+P62812+P63080). The experiment in a line: Positive allosteric modulation of recombinant mouse alpha1beta3gamma2 GABAA receptor expressed in GFP tagged HEK293 cells assessed as maximum GABA current at 100 uM by whole-cell voltage clamp electrophysiological analysis. The class given is cell-based. Particulars: filed as positive allosteric modulator.

Data set [5] deals with T2, Gamma-aminobutyric acid receptor subunit alpha-1/beta-3/gamma-2 (Mus musculus). The experiment in a line: Negative allosteric modulation of recombinant mouse alpha1beta3gamma2 GABAA receptor expressed in GFP tagged HEK293 cells at 100 uM by whole-cell voltage clamp electrophysiological analysis. It counts as cell-based. The settings on record: filed as negative allosteric modulator.

Data set [6] shares this target. Put plainly: Negative allosteric modulation of recombinant mouse alpha1beta3gamma2 GABAA receptor expressed in GFP tagged HEK293 cells at 100 uM by whole-cell voltage clamp electrophysiological analysis relative control. The class given is cell-based. Particulars: filed as negative allosteric modulator.
The subject of data set [7] is HEK293. Put plainly: Positive allosteric modulation of recombinant mouse alpha1 Q241L mutant/beta3/gamma2 GABAA receptor expressed in GFP tagged HEK293 cells by whole-cell voltage clamp electrophysiological analysis. It counts as cell-based.
The target of data set [8] is T3, GABA-A receptor; anion channel (Rattus norvegicus) (UniProt O09028+P15431+P18506+P18508+P19969+P20236+P23574+P23576+P28471+P28473+P30191+P62813+P63079+P63138+Q91ZM7+Q9ES14). Put plainly: Positive allosteric modulation of GABAA receptor in Sprague-Dawley rat Hippocampal neuron assessed as potentiation of tonic holding current at 30 uM by whole-cell voltage-clamp electrophysiological analysis. It counts as cell-based. Particulars: filed as positive allosteric modulator.

Data set [9] has as its target T3, GABA-A receptor; anion channel (Rattus norvegicus). Put plainly: Positive allosteric modulation of GABAA receptor in Sprague-Dawley rat Hippocampal neuron assessed as prolongation of spontaneous IPSC decay time at 10 uM by whole-cell voltage-clamp electrophysiological analysis. It counts as cell-based. The settings on record: filed as positive allosteric modulator.

The target is the same in data set [10]. Put plainly: Positive allosteric modulation of GABAA receptor in Sprague-Dawley rat Hippocampal neuron assessed as reduction in spontaneous IPSC amplitude at 10 uM by whole-cell voltage-clamp electrophysiological analysis. Particulars: filed as positive allosteric modulator. It counts as cell-based.
The target is the same in data set [11]. The experiment in a line: Positive allosteric modulation of GABAA receptor in Sprague-Dawley rat Hippocampal neuron assessed as decrease in spontaneous IPSC frequency at 10 uM by whole-cell voltage-clamp electrophysiological analysis. It counts as cell-based. Particulars: filed as positive allosteric modulator.
The target in data set [12] is T2, Gamma-aminobutyric acid receptor subunit alpha-1/beta-3/gamma-2 (Mus musculus). Put plainly: Positive allosteric modulation of recombinant wild type mouse alpha1beta3gamma2 GABAA receptor expressed in GFP tagged HEK293 cells at 100 uM by whole-cell voltage clamp electrophysiological analysis. The class given is cell-based.
For data set [13], the system named is HEK293. Put plainly: Positive allosteric modulation of recombinant mouse alpha1 Q241L mutant/beta3/gamma2 GABAA receptor expressed in GFP tagged HEK293 cells at 100 uM by whole-cell voltage clamp electrophysiological analysis. The class given is cell-based.
Data set [14] relates to HEK293. The experiment in a line: Negative allosteric modulation of recombinant mouse alpha1 Q241L mutant/beta3/gamma2 GABAA receptor expressed in GFP tagged HEK293 cells assessed as inhibition of peak current at 100 uM by whole-cell voltage clamp electrophysiological analysis. It counts as cell-based.
In data set [15] the test system is HEK293. Put plainly: Negative allosteric modulation of recombinant mouse alpha1 Q241L mutant/beta3/gamma2 GABAA receptor expressed in GFP tagged HEK293 cells assessed as inhibition of steady-state level at 100 uM by whole-cell voltage clamp electrophysiological analysis. It counts as cell-based.
The target of data set [16] is T2, Gamma-aminobutyric acid receptor subunit alpha-1/beta-3/gamma-2 (Mus musculus). Put plainly: Positive allosteric modulation of recombinant mouse alpha1beta3gamma2 GABAA receptor expressed in GFP tagged HEK293 cells assessed as maximum GABA current by measuring maximum activation at 100 uM by whole-cell voltage clamp electrophysiological analysis relative to control. The class given is cell-based. The settings on record: filed as positive allosteric modulator.

T1 sequence (P22723 whole entry): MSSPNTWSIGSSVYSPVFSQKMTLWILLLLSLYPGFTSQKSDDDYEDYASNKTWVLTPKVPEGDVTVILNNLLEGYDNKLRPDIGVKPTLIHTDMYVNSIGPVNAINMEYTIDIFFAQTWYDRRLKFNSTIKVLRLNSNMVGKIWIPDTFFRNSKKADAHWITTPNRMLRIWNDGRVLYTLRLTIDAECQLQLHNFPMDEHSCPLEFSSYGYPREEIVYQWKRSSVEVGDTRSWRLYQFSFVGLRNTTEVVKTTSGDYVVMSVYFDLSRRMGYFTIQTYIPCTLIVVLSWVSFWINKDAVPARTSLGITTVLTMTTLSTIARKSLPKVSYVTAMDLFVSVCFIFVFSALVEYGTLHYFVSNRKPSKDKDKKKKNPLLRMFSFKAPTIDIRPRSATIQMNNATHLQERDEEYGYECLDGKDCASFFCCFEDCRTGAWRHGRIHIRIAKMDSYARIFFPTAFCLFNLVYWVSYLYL
T1 sequence (P62812 whole entry): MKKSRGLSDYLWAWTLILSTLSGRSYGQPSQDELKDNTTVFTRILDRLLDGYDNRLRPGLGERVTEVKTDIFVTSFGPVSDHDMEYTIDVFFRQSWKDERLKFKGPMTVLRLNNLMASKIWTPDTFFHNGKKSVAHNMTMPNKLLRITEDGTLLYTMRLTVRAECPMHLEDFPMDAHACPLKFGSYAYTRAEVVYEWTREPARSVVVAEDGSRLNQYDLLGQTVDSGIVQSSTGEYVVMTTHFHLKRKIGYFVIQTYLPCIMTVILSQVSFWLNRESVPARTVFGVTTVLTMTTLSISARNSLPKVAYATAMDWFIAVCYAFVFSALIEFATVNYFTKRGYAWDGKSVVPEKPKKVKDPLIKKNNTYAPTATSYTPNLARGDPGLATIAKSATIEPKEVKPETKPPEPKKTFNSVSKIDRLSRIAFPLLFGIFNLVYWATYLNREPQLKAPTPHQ
T1 sequence (P63080 whole entry): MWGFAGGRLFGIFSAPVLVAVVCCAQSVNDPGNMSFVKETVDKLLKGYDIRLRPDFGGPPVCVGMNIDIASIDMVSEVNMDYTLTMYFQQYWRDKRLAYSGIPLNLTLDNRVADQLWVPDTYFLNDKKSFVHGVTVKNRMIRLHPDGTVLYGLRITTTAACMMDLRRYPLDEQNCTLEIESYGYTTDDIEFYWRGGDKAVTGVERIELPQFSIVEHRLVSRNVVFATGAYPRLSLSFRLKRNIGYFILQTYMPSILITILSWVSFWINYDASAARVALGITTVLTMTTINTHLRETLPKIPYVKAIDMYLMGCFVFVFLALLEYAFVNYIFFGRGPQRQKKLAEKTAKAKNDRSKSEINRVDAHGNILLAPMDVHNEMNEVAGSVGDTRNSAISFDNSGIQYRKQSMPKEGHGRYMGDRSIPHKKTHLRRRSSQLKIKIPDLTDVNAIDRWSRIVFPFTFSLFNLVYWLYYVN

For the compound `CC(=O)[C@H]1CC[C@H]2[C@@H]3CC=C4C[C@@H](OS(=O)(=O)O)CC[C@]4(C)[C@H]3CC[C@]12C`, the IC50 in [1] was 292 µM; in data set [2], 3.2 µM.
Take `O[C@H]1CC[C@@H](c2ccc3c(c2)CCC3)CC1`: the solubility result in data set [3] is “soluble”. For the same compound, the result in data set [4] and in data set [5] was Active. Besides, the IC50 in [1] was 55 µM; in [2], 18 µM.
On to `O[C@H]1CC[C@H](c2ccc3c(c2)CCC3)CC1`, for which the solubility entry in data set [3] is on record as “soluble”. Moreover, the result in [4] and in [5] was Active. Further, the values for the half-inhibitory concentration (IC50) in data set [1] and in data set [2] were 59 µM and 14 µM, respectively.
In the case of `C[C@]12CC[C@H](OS(=O)(=O)O)CC1=CCc1cc(Br)ccc12`, the solubility result in data set [3] is on record as “soluble”. Moreover, the result in data set [4] and in [5] was Active. The IC50 in [1] and in data set [2] was 10 µM in each case. Besides, the Activity in [6] stood at 100%.
On to `C[C@@]12CC/C(=C/CO)C[C@H]1CCc1ccccc12`, for which the solubility entry in data set [3] is recorded as “soluble”. For the same compound, in [5], the result was Active. Also, the IC50 in data set [1] was determined as 114 µM; in [2] it was 23 µM.
On to `O=S(=O)(O)O[C@H]1CC[C@@H](c2ccc3c(c2)CCC3)CC1`, for which, in [3], the solubility result is given as “soluble”. Further, the outcome in [4] and in data set [5] was Active. For the same compound, the IC50 in data set [1] was found to be 190 µM; in data set [2], 53 µM.
For `O=S(=O)(O)O[C@H]1CC[C@H](c2ccc3c(c2)CCC3)CC1`, the solubility entry in data set [3] is reported as “soluble”. The outcome in data set [5] was Active. For the same compound, the IC50 in data set [1] is 148 µM; in [2], 73 µM.
With `CC(=O)c1cccc(C2=CC[C@@]3(C)[C@H](CC[C@@H]3O)C2)c1`, the result in [7] was inactive. Besides, the outcome in data set [8], in data set [9], in data set [10] and in data set [11] was Active.
On to `CC(=O)c1cccc(C2=C[C@H]3CC[C@H](O)[C@@]3(C)CC2)c1`, for which, in data set [7], the result was inactive.
As for `C[C@]12CC[C@H](c3ccccc3)C[C@H]1CC[C@@H]2OS(=O)(=O)O` (mixture of isomers), the solubility result in data set [3] was “soluble”. Also, the outcome in data set [5] was Active. The results for the IC50 in [1] and in data set [2] were 128 µM and 54 µM, respectively.
As to `C[C@@]12CCC(CCOS(=O)(=O)O)C[C@H]1CCc1ccccc12` (mixture of isomers), in data set [3], the solubility result is “soluble”. For the same compound, in [5], the result was Active. In addition, the IC50 is 15 µM in data set [1] and 12 µM in data set [2]. Further, in data set [6], the Activity turned out to be 100%. Also, the result in data set [12], in data set [13], in data set [14] and in [15] was inactive.
As for `C[C@]12CC[C@H](c3ccccc3)C[C@H]1CC[C@@H]2O` (mixture of isomers), the solubility result in data set [3] is given as “soluble”. For the same compound, the outcome in data set [4] and in [5] was Active. In data set [16], the maximal effect (Emax) was 43%. For the same compound, the IC50 turned out to be 37 µM in [1] and 20 µM in [2]. In [6], the Activity amounted to 100%.
With `C[C@@]12CCC(CCO)C[C@H]1CCc1ccccc12` (mixture of isomers), the solubility entry in [3] is “soluble”. Moreover, the result in data set [5] and in [14] (filed as negative allosteric modulator) was Active. Also, the results for the IC50 in data set [1] and in data set [2] were 29 µM and 14 µM, respectively. In addition, in data set [6], the Activity worked out at 100%. In addition, the outcome in [12], in [13] and in data set [15] was inactive.
For the compound `C[C@]12CC[C@@H](c3ccccc3)C[C@H]1CC[C@@H]2OS(=O)(=O)O` (mixture of isomers), in [3], the solubility result is listed as “soluble”. Further, the outcome in [4] and in data set [5] was Active. The values for the IC50 in data set [1] and in data set [2] were 76 µM and 42 µM, respectively.
`C[C@]12CC[C@@H](c3ccccc3)C[C@H]1CC[C@@H]2O` (relative stereo): the solubility entry in [3] is listed as “soluble”. The result in data set [4] and in data set [5] was Active. The IC50 in data set [1] was determined as 27 µM; in data set [2], 21 µM. For the same compound, the Activity in data set [6] turned out to be 100%.
